For nine compounds, TGI and GI50 results are on record in PubChem BioAssay (NCI).

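Briefly, cells in 96-well plates were exposed to five compound concentrations for 48 h, and endpoints were estimated by linear interpolation. At the GI50, growth is halved. TGI denotes the concentration required for complete inhibition of growth.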

Some test systems named below: LOX IMVI melanoma; SK-OV-3 ovarian; SK-MEL-5 melanoma; UACC-257 melanoma; IGROV1 ovarian; MALME-3M melanoma; U251 CNS; COLO 205 colon; SK-MEL-2 melanoma; UO-31 renal.
Experiment in all cases: NCI-60 cell line screen, 48 h

On to `C=C1C(=O)O[C@@H]2C[C@@H](C)[C@@H]3C=CC(=O)[C@@]3(C)[C@@H](OC(=O)CCCC(=O)O[C@H]3[C@@H]4C(=C)C(=O)O[C@@H]4C[C@@H](C)[C@@H]4C=CC(=O)[C@]43C)[C@H]12`, for which the TGI in the assay with LOX IMVI melanoma was determined as 0.152 µM; in the assay on SK-OV-3 ovarian, 3.8 µM; with SK-MEL-5 melanoma, 0.293 µM; in the assay on UACC-257 melanoma, 0.271 µM; in the assay with IGROV1 ovarian, 0.313 µM; in the assay with MALME-3M melanoma, 0.0373 µM. The TGI worked out at 0.377 µM in the assay with U251 CNS, 0.111 µM with COLO 205 colon, 0.34 µM in the assay on SK-MEL-2 melanoma and 0.289 µM in the assay on UO-31 renal.

For `CCOC(=O)c1sc(NC(=O)COc2ccc(/C=C3\CCc4cc(OC)ccc4C3=O)cc2)nc1C`, the GI50 is 1310 nM with LOX IMVI melanoma; 18.7 µM in the assay with SK-OV-3 ovarian; 12400 nM in the assay on SK-MEL-5 melanoma; 11500 nM in the assay on UACC-257 melanoma; 1630 nM in the assay with IGROV1 ovarian; 1130 nM with MALME-3M melanoma. In addition, the GI50 with U251 CNS is 8.75 µM; with COLO 205 colon, 15500 nM; in the assay on SK-MEL-2 melanoma, 5610 nM; in the assay with UO-31 renal it was 1780 nM. Further, the TGI was 18.8 µM with LOX IMVI melanoma; 45.3 µM in the assay with SK-OV-3 ovarian; 24.8 µM in the assay with SK-MEL-5 melanoma; 25 µM in the assay on UACC-257 melanoma; 6.22 µM in the assay with IGROV1 ovarian; 12.6 µM with MALME-3M melanoma. In addition, the TGI with U251 CNS came to 21.8 µM; with COLO 205 colon it was 30 µM; with SK-MEL-2 melanoma it was 21.6 µM; in the assay with UO-31 renal, 9.64 µM.

On to `COc1cccc(C=NC23CC4CC(CC(C4)C2)C3)c1`, for which the TGI in the assay on LOX IMVI melanoma, with SK-OV-3 ovarian, with SK-MEL-5 melanoma, in the assay with UACC-257 melanoma, with IGROV1 ovarian and in the assay on MALME-3M melanoma was over 100 µM each time. The TGI in the assay with U251 CNS, in the assay with COLO 205 colon, with SK-MEL-2 melanoma and in the assay on UO-31 renal was over 100 µM throughout.

As for `CCOC(=O)/C=C/c1ccc([N+](=O)[O-])o1`, the GI50 was 1550 nM in the assay on LOX IMVI melanoma; 22.4 µM in the assay with SK-OV-3 ovarian; 3810 nM with SK-MEL-5 melanoma; 2740 nM in the assay on UACC-257 melanoma; 10900 nM with IGROV1 ovarian; 2320 nM with MALME-3M melanoma. The GI50 is 14.7 µM with U251 CNS, 2260 nM with COLO 205 colon, 11300 nM in the assay with SK-MEL-2 melanoma and 1690 nM with UO-31 renal. The TGI is 3.71 µM in the assay on LOX IMVI melanoma; over 100 µM with SK-OV-3 ovarian; 15.2 µM in the assay with SK-MEL-5 melanoma; 11.4 µM in the assay on UACC-257 melanoma; 24.8 µM in the assay on IGROV1 ovarian; 4.99 µM in the assay with MALME-3M melanoma. The TGI was 50.4 µM with U251 CNS, 5.69 µM in the assay with COLO 205 colon, 36.8 µM in the assay on SK-MEL-2 melanoma and 3.42 µM in the assay with UO-31 renal.

In the case of `CCCCC[C@H]1C/C=C2/C(=O)C=C[C@@H]2C/C=C\CCCC(=O)O1`, the GI50 in the assay with LOX IMVI melanoma is 89.9 nM; in the assay on SK-OV-3 ovarian, 0.364 µM; in the assay on SK-MEL-5 melanoma it was 84.4 nM; with UACC-257 melanoma it was 105 nM; with IGROV1 ovarian it was 209 nM; in the assay with MALME-3M melanoma, 500 nM. Besides, the GI50 with U251 CNS was 0.116 µM; with COLO 205 colon, 113 nM; in the assay on SK-MEL-2 melanoma, 114 nM; with UO-31 renal, 90.2 nM. The TGI with LOX IMVI melanoma was 0.18 µM; with SK-OV-3 ovarian, 6.11 µM; in the assay on SK-MEL-5 melanoma it was 0.168 µM; in the assay with UACC-257 melanoma it was 0.346 µM; with IGROV1 ovarian it was 1.43 µM; in the assay with MALME-3M melanoma, 5.02 µM. In addition, the TGI in the assay with U251 CNS came to 0.305 µM; in the assay with COLO 205 colon, 0.256 µM; in the assay with SK-MEL-2 melanoma, 0.296 µM; with UO-31 renal it was 0.171 µM.

With `CNC(=O)NCCCCC(NC(C)=O)C(=O)NCc1ccccc1` (stereo not given), the TGI with LOX IMVI melanoma, in the assay with SK-OV-3 ovarian, in the assay with SK-MEL-5 melanoma, with UACC-257 melanoma, in the assay with IGROV1 ovarian and in the assay on MALME-3M melanoma was over 100 µM throughout. Also, the TGI with U251 CNS, with COLO 205 colon, in the assay on SK-MEL-2 melanoma and in the assay on UO-31 renal was over 100 µM throughout.

Regarding `COc1ccc(/C=C(\C#N)c2cc(OC)c(OC)c(OC)c2)cc1`, the GI50 with LOX IMVI melanoma was 25.8 nM; in the assay with SK-OV-3 ovarian, under 0.0138 µM; in the assay with SK-MEL-5 melanoma it was 18.2 nM; in the assay with UACC-257 melanoma, 12 nM; in the assay on IGROV1 ovarian, 43.2 nM; in the assay with MALME-3M melanoma, 21300 nM. The GI50 with U251 CNS was 0.0359 µM; in the assay with COLO 205 colon, 11 nM; in the assay on SK-MEL-2 melanoma it was 35.6 nM; in the assay on UO-31 renal it was 38.9 nM. Further, the TGI in the assay with LOX IMVI melanoma was over 100 µM; with SK-OV-3 ovarian, 0.221 µM; in the assay with SK-MEL-5 melanoma, 0.0644 µM; in the assay on UACC-257 melanoma it was over 100 µM; with IGROV1 ovarian it was over 100 µM; in the assay on MALME-3M melanoma it was over 100 µM. For the same compound, the TGI in the assay on U251 CNS was over 100 µM; in the assay on COLO 205 colon it was 0.0251 µM; in the assay on SK-MEL-2 melanoma, over 100 µM; in the assay with UO-31 renal it was 58.6 µM.

For `CCOC1=C/C(=N\Nc2ccc([N+](=O)[O-])cc2)CCC1`, the TGI with LOX IMVI melanoma is over 100 µM; in the assay on SK-OV-3 ovarian, over 100 µM; with SK-MEL-5 melanoma it was 73.3 µM; in the assay on UACC-257 melanoma, over 100 µM; in the assay on IGROV1 ovarian, 40.7 µM; in the assay with MALME-3M melanoma, over 100 µM. For the same compound, the TGI amounted to 54.1 µM in the assay on U251 CNS, 51.3 µM with COLO 205 colon, 58.1 µM with SK-MEL-2 melanoma and 35.1 µM in the assay with UO-31 renal.

With `COc1ccc(OCC(=O)O)c2c1CCC(C)C2=O` (stereo not given), the TGI in the assay on LOX IMVI melanoma, in the assay with SK-OV-3 ovarian, in the assay with SK-MEL-5 melanoma, with UACC-257 melanoma, with IGROV1 ovarian and in the assay with MALME-3M melanoma was over 100 µM throughout. For the same compound, the TGI in the assay on U251 CNS, in the assay with COLO 205 colon, with SK-MEL-2 melanoma and with UO-31 renal was over 100 µM in each case.
